Each structure is given as a SMILES string. “Also recorded” adds a separate entry of the source.

This passage reports Notch1 activity and Notch4 activity results from patent US20160376659A1, “Breast Cancer Biomarker” (The University of Manchester, priority 2015, published 2016).

One experiment relates to Notch1. Kind of experiment: Notch1 activity in MCF7, MDA-MB-231 and BT474 cells. Type of experiment: cell-based.
The next experiment has as its system Notch4. Kind of experiment: Notch4 activity in MCF7, MDA-MB-231 and BT474 cells. Type of experiment: cell-based.

Regarding `C[C@H](NC(=O)Cc1cc(F)cc(F)c1)C(=O)N[C@@H]1C(=O)N(C)c2ccccc2-c2ccccc21` [DBZ], the Notch1 activity result with Notch1 is on record as “inhibit”. Moreover, the Notch4 activity entry in the experiment with Notch4 was “no Notch4; also recorded: not NOTCH4 activity”.
The matching figures for `C[C@H](NC(=O)Cc1cc(F)cc(F)c1)C(=O)N[C@H](C(=O)OC(C)(C)C)c1ccccc1` [DAPT]: “inhibit” and “no Notch4; also recorded: not NOTCH4 activity”.
